A short description of data set [1]: Encapsulation efficiency EEsc / solid content, gravimetric after freeze-drying. The data set is classed as physicochemical. The conditions noted are these: fragrance encapsulated with Monomermischung S1. The source says:
Der Feststoffgehalt (SC) wurde […] Proben bestimmt. Vorher wurden zwei verschiedene theoretische Feststoffgehalte berechnet. SC1 ohne die Masse des Riechstoffs und SC2 […] Bestimmung des […] und […] bei der Messung des Feststoffgehalts SC2 mitbestimmt. Unter […] bei Polymerisation kann durch den Vergleich des praktisch gemessenen Feststoffgehalts SC mit den oben genannten theoretischen Werten die Menge an […]. Der Anteil an […] zur Einsatzmenge bei […].: Encapsulation Efficiency) EEsc in Prozent angegeben. Der theoretisch berechneten Feststoffgehalt SC1 betrugt 14,3%. Die Angabe […] 1 zeigt, dass der Riechstoff eingeschlossen wurde und […]. Die […]. Die in den Beispielen 1 und 2 verwendete Monomermischung S1 wurde für die Verkapselung weiterer Riechstoffe verwendet und die […] oben […]. Die […]

The conditions of data set [2]: Hansen-Parameter, δt^2 = δd^2 + δp^2 + δh^2. The source says:
Damit die hydrophobe Verbindung effektiv verkapselt werden kann, ist es erforderlich, dass die Verbindung ausreichend hydrophob ist, so dass sie nicht mit dem aus den Monomeren gebildeten Polymer derart interagiert, dass sie dieses übermäßig quellen und dadurch für die Verbindung stärker permeabel werden lässt. Es ist daher bevorzugt, dass die mindestens eine hydrophobe Verbindung einen Hansen-Parameter δt von weniger als 20, insbesondere weniger als 19 hat; und/oder einen Hansen-Parameter δh von weniger als 10, insbesondere weniger als 6 hat.
Der Hansen-Parameter ist ein in der Polymerchemie weit verbreiteter Parameter zum Vergleich der Löslichkeit bzw. Mischbarkeit von verschiedenen Substanzen. Dieser Parameter wurde von Charles Hansen entwickelt, um die Löslichkeit eines Materials in einem anderen vorherzusagen. Dabei wird die Kohäsionsenergie einer Flüssigkeit betrachtet, welche in mindestens drei verschiedene Kräfte eingeteilt werden kann: (a) Dispersionskräfte zwischen den Molekülen δd, (b) Dipolare intermolekulare Kräfte zwischen den Molekülen δp und (c) Wasserstoffbrückenbindungen zwischen den Molekülen δh. Diese drei Parameter können zu einem Parameter δt zusammengefasst werden nach der Formel δt^2 = δd^2 + δp^2 + δh^2. Je ähnlicher der Hansen-Parameter von unterschiedlichen Materialien ist, desto besser sind diese ineinander mischbar.
Tabelle 3 gibt die Hansen-Parameter für die getesteten Riechstoffe an. Tabelle 3: Hansen-Parameter

The conditions of data set [3]: Hansen-Parameter, cited from earlier work; for δp: dipolar forces; for δd: dispersion forces; for δh: hydrogen bonds.

Consider Ionon, for which, in data set [1], the “Verkapselungseffizienz EEsc” value stood at 46%. For the same compound, the δt in data set [2] is reported as 18,94. In data set [3], the δp is listed as 5,7, the δd was 17,1 and the δh is 5,8.

Consider `CC(C=O)Cc1ccc(C(C)(C)C)cc1` (centres unmarked) [Lilial, 3-(4-tert-Butylphenyl)-2-methylpropanal], for which the “Verkapselungseffizienz EEsc” value in data set [1] is recorded as 77%. The δt in data set [2] was 18,10. In data set [3], the δp is recorded as 2,3, the δd is given as 17,3 and the δh is 4,8.

Take `CC(C)=CCCC(C)CC=O` (centres unmarked) [Citronellal]: in data set [1], the “Verkapselungseffizienz EEsc” value was 72%. In data set [2], the δt is recorded as 18,01. Further, in data set [3], the δp is 5,9, the δd is reported as 16,2 and the δh is listed as 5,2.

Hexenol: the “Verkapselungseffizienz EEsc” value in data set [1] came out at 0%. For the same compound, in data set [3], the δp was 6,7, the δd is reported as 16 and the δh is reported as 13,4.

Take `C/C=C/C(=O)C1=C(C)CCCC1(C)C` [β-Damascone]: the “Verkapselungseffizienz EEsc” value in data set [1] amounted to 72%. In addition, the δt in data set [2] is 18,84. In data set [3], the δp was 4,9, the δd is recorded as 17,4 and the δh was 5,3.

As for `C=CC(C)CCCC(C)(C)O` (centres unmarked) [Dihydromyrcenol], in data set [1], the “Verkapselungseffizienz EEsc” value is recorded as 4%. In data set [2], the δt is reported as 19,72. Further, in data set [3], the δp is 4,3, the δd is 16 and the δh is recorded as 10,7.

Consider `CC(C)=CCC/C(C)=C/CO` [Geraniol], for which, in data set [1], the “Verkapselungseffizienz EEsc” value was 0%. Further, the δt in data set [2] is given as 20,25.

On to `CC(C)=CCCC(C)CCO` (centres unmarked) [Citronellol], for which the “Verkapselungseffizienz EEsc” value in data set [1] is reported as 25%. Further, the δt in data set [2] is 19,97. Also, in data set [3], the δp is recorded as 4,8, the δd was 16,1 and the δh was 10,8.

As for `CC1=CCC2CC1C2(C)C` (stereo not drawn) [α-Pinen], in data set [1], the “Verkapselungseffizienz EEsc” value stood at 91%. For the same compound, in data set [3], the δp is 4,3, the δd is 15,6 and the δh is reported as 0.

In the case of `OCCc1ccccc1` [Phenylethylalkohol], the δt in data set [2] is recorded as 24,09. In addition, in data set [3], the δp is recorded as 7,6, the δd was 18,8 and the δh was 13.

Consider `C/C=C\C(=O)C1C(C)=CCCC1(C)C` (stereo not drawn) [α-Damascone], for which the “Verkapselungseffizienz EEsc” value in data set [1] was 52%. For the same compound, the δt in data set [2] is reported as 18,94. In data set [3], the δp is 5,7, the δd was 17,1 and the δh is reported as 5,8.

Take `CC/C=C\CC1=C(C)CCC1=O` [Jasmone]: in data set [2], the δt is 18,49. For the same compound, in data set [3], the δp was 5,2, the δd is listed as 17 and the δh was 5,1.

These data come from patent EP2963103A1, “pH-sensitive nanocapsules” (Henkel AG & Co. KGaA, priority 2014, dated 2016).
